According to patent US4272524A, “N-Acyl-muramyl peptide derivatives having anti-infectious infections properties” (priority 1976, dated 1981):

System: Klebsiella pneumoniae
Test: Response of mice to an intramuscular infection by 10^4 Klebsiella pneumoniae (Table 2)
Assay type: in vivo
[1] = i.v. hour + 1 after inoculation, 100 μg per animal
[2] = per os day-1, 2,000 μg per animal

Compound | Survival (%) D + 3 (i.v. day-1, 100 μg per animal) | Survival (%) D + 5 (i.v. day-1, 100 μg per animal) | Survival (%) D + 8 (i.v. day-1, 100 μg per animal) | Survival (%) D + 3 [1] | Survival (%) D + 5 [1] | Survival (%) D + 8 [1] | Survival (%) D + 3 [2] | Survival (%) D + 5 [2] | Survival (%) D + 8 [2] | Survival (%) D + 3 (s.c. day-1, 100 μg per animal) | Survival (%) D + 5 (s.c. day-1, 100 μg per animal) | Survival (%) D + 8 (s.c. day-1, 100 μg per animal)
Ac--Mur--L-Ala--D-Glu-- γ(L-Lys--L-Ala)--NH2 [Ac--Mur--L-Ala--D-Glu--(L-Lys--L-Ala)] | 96% | 79% | 71% | – | – | – | – | – | – | – | – | –
CC(=O)N[C@H]1C(O)O[C@H](CO)[C@@H](O)[C@@H]1O[C@H](C)C(=O)N[C@@H](C)C(=O)N[C@H](CCC(N)=O)C(=O)O (stereo partly drawn) [Ac--Mur--L-Ala--D-Glu--γ(NH2)] | 92% | 79% | 67% | – | – | – | – | – | – | – | – | –
Ac--Mur--L-Ala--D-Glu-- γ(L-Ala)--NH2 [Ac--Mur--L-Ala--D-Glu--(L-Ala)--NH2] | 100% | 94% | 63% | – | – | – | – | – | – | – | – | –
Ac--Mur--L-Ala--D-Glu-- γ(L-Lys)--NH2 [Ac--Mur--L-Ala--D-Glu--(L-Lys)--NH2] | 100% | 93% | 73% | 91% | 78% | 66% | 81% | 81% | 56% | 100% | 81% | 75%
